Laboratory results reported in ChEMBL document CHEMBL1201862, “PubChem BioAssay data set” (2004).
The source made the active and inactive calls.

Tests used:
[1] = luciferase reporter signal suppression in cells – H4 neuroglioma cells, luminescence, dose response (AID 1990); assay type: functional, cell-based
Vero = assay: host cell viability loss, Vero E6 – synthesized analogs, cytotoxicity control for West Nile virus antiviral project, SAR follow-up (AID 2244); assay type: functional; details: Chlorocebus sabaeus
[2] = Luminescence Cell-Based Dose Response HTS to Identify Inhibitors of 5'UTR Stem-Loop Driven Prion Protein mRNA Translation in H4 Neuroglioblastoma Cells. [Related pubchem assays: 1827 (Project Summary), 1813 (Primary HTS)]; assay type: functional
[3] = alpha-synuclein stem-loop luciferase translation blockers – H4 neuroglioma cells, luminescence, confirmation (AID 1988); assay type: functional, cell-based
[4] = Luminescence Cell-Based Dose Retest to Confirm Inhibitors of Cancer Stem Cells. [Related pubchem assays (depositor defined):AID2717, AID2721]; assay type: functional; details: Homo sapiens
[5] = reduction of Shn3 3'UTR-driven luciferase in osteoblasts – cell-based, Clone20 osteoblasts, firefly luciferase, cherry-picked, dose response (AID 624132); assay type: functional;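 further: firefly luciferase luminescence from reporter carrying the Shn3 3'UTR in osteoblasts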
[6] = fluconazole-exposed Candida albicans growth modulators – fluorescence, retest, confirmation (AID 2467); assay type: functional, cell-based
BJ = assay: growth inhibition of engineered Ras-driven BJ cells – cell-based, alamar blue fluorescence, cherrypicked samples, dose response (AID 2631); assay type: functional; details: Homo sapiens;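 further: confirmatory dose-response assay in RAS-dependent BJ fibroblasts engineered with TERT, LT and ST, with cytotoxicity read by fluorescence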
X-box-binding protein 1 = X-box-binding protein 1 (Homo sapiens, UniProt P17861); assay type: functional, Cricetulus griseus;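 further: confirmatory dose-response counter-screen serving a CHOP assay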
[7] = NIH-3T3 fibroblast cytotoxicity, dose response, cytotoxicity control, cell-based, fluorescence, Alamar Blue, secondary assay (AID 2327); assay type: functional;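 further: NIH-3T3 mouse fibroblasts cultured with fluconazole at 8 µg/mL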
[8] = loss of viability in HepG2 cells – cell-based, CellTiter-Glo, cherry-picked, cytotoxicity control for Shn3 inhibitor project, dose response (AID 624134); assay type: functional
[9] = non-specific 3'UTR reporter inhibition in Clone20-Shn3RL – cell-based, Renilla luciferase, cherry-picked, counter-screen for Shn3 inhibitor project, dose response (AID 624133); assay type: functional
HeLa = assay: Cytotoxicity counterscreen assay for transcriptional activators of heat shock protein 70 (Hsp70). [Related pubchem assays: 1203, 1252 ]; assay type: functional; details: Homo sapiens
[10] = target: T1, RNA-binding protein pos-1 (Caenorhabditis elegans, UniProt G5EF15); assay: disruptors of C. elegans POS-1 RNA interaction – biochemical, fluorescence polarization, dose response (AID 1964);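 further: purified POS-1 fused to maltose binding protein made in E. coli; potency of compounds blocking POS-1 binding to fluorescent RNA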
T1 sequence (G5EF15 whole entry): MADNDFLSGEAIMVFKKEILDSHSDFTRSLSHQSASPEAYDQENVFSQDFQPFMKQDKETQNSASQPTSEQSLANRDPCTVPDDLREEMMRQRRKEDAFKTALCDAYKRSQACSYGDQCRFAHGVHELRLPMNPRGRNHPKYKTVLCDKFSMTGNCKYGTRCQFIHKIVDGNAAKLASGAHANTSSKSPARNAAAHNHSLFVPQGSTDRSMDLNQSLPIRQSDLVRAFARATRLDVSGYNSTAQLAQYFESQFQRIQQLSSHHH

[11] = target: Female germline-specific tumor suppressor gld-1 (Caenorhabditis elegans, UniProt Q17339); assay: blockers of GLD-1/TGE RNA complex formation – biochemical, fluorescence polarization, C. elegans, dose response (AID 2802);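 further: fluorescence polarization of labeled TGE RNA bound by purified gld-1 protein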
Protein Rev = Protein Rev (Human immunodeficiency virus type 1 group M subtype B (isolate HXB2)(HIV-1), UniProt P04618); assay: blockers of HIV Rev/RRE RNA complex – biochemical, fluorescence polarization, HIV-1, dose response (AID 434976); set-up: species or system Human immunodeficiency virus 1
[12] = target: T2, Zinc finger protein mex-5 (Caenorhabditis elegans, UniProt Q9XUB2); assay: potency of MEX-5 RNA-binding blockers – biochemical, C. elegans, fluorescence polarization, dose response (AID 1960)
T2 sequence (Q9XUB2 whole entry): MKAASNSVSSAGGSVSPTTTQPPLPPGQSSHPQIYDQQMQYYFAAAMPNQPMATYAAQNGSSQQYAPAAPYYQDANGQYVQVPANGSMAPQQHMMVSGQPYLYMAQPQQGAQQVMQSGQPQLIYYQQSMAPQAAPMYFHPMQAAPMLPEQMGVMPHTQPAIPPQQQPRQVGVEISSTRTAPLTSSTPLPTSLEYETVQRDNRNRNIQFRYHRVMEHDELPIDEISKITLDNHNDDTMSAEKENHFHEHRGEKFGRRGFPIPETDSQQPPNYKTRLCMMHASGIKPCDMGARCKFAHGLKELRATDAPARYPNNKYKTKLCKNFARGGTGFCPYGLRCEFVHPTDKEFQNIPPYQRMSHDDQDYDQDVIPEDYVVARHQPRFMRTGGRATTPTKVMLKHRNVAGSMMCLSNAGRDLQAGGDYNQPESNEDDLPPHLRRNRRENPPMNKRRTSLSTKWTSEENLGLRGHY

Bcl-2-like protein 10 = Bcl-2-like protein 10 (Homo sapiens, UniProt Q9HD36); assay: Bcl-B/TR3 peptide binding disruption – biochemical, fluorescence polarization, FITC-TR3 peptide, selectivity assay for Bfl-1 inhibitor project, primary screen (AID 748);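 further: fluorescence polarization from a fluorescein-labelled TR3 peptide binding purified Bcl-B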
Cytochrome P450 2C9 = Cytochrome P450 2C9 (Homo sapiens, UniProt P11712); details: Potency
[13] = target: Signal transducer and activator of transcription 3 (Homo sapiens, UniProt P40763); assay: STAT3 activation with BCL3 mRNA and toxicity – cell-based, […], BCL3 qPCR, cytotoxicity, late-stage follow-up, panel member STAT3 Activation (AID 2049)
[14] = STAT3 activation with BCL3 mRNA and toxicity – cell-based, STAT1 reporter, BCL3 qPCR, cytotoxicity, late-stage follow-up, panel member Cytotoxicity (AID 2049)
[15] = protection from phage-mediated lysis, alamar blue read-out – E. coli UTI89, K1F phage, bacterial capsule biogenesis inhibitors (AID 488966); assay type: functional
[16] = target: Scavenger receptor class B member 1 (Mus musculus, UniProt Q61009); assay: mouse SR-BI DiI-HDL uptake blockers – ldlA[mSR-BI] cells, fluorescence, cherry pick, dose response (AID 493194); assay type: functional, cell-based;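 further: cellular uptake of fluorescent DiI-labeled HDL measured as cell fluorescence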
Chain of Scavenger receptor class B member 1 (Q61009 whole entry): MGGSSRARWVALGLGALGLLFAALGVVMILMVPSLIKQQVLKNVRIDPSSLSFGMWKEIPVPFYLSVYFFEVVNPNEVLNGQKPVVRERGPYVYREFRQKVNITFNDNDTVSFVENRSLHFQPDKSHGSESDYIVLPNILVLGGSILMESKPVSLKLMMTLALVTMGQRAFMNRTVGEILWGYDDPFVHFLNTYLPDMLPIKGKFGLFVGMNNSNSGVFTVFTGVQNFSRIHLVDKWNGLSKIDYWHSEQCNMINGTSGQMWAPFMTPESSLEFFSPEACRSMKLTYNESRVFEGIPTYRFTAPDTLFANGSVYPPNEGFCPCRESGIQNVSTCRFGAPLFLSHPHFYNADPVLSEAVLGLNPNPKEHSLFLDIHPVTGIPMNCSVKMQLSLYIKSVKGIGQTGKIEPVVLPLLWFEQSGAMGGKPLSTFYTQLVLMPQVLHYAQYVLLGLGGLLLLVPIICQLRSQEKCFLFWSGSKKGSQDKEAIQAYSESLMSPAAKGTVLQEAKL

Chain of Bcl-2-like protein 10 (Q9HD36 whole entry): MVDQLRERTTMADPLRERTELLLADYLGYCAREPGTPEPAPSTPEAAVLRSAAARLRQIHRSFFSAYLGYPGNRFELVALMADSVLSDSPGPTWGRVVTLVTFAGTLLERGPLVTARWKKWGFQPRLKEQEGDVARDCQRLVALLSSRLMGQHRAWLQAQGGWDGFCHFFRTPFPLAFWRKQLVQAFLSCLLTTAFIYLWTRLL
Chain of Signal transducer and activator of transcription 3 (P40763 whole entry): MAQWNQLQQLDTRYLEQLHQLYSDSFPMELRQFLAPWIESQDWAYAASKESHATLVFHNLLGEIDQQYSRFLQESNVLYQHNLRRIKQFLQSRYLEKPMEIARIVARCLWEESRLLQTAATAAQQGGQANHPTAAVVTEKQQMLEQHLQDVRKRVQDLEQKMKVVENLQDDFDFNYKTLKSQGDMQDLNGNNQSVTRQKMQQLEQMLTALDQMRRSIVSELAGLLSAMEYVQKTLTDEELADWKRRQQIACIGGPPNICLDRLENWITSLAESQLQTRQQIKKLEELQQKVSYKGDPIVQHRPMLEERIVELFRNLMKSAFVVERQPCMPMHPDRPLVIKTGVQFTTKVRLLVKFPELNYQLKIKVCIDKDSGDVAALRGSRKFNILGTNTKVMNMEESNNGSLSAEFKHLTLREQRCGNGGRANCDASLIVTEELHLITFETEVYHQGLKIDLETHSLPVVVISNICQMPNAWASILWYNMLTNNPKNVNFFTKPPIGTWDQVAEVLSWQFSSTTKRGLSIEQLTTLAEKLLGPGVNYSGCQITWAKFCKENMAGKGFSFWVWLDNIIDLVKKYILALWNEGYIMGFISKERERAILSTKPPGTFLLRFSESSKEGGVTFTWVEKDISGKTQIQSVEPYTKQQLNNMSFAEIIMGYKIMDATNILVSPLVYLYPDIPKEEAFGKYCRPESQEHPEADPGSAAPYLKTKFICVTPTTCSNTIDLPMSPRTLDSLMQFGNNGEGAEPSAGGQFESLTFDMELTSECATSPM
Chain of Protein Rev (P04618 whole entry): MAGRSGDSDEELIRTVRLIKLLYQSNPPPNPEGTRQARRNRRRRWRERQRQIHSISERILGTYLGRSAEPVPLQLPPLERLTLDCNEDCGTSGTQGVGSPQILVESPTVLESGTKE
Chain of Cytochrome P450 2C9 (P11712 whole entry): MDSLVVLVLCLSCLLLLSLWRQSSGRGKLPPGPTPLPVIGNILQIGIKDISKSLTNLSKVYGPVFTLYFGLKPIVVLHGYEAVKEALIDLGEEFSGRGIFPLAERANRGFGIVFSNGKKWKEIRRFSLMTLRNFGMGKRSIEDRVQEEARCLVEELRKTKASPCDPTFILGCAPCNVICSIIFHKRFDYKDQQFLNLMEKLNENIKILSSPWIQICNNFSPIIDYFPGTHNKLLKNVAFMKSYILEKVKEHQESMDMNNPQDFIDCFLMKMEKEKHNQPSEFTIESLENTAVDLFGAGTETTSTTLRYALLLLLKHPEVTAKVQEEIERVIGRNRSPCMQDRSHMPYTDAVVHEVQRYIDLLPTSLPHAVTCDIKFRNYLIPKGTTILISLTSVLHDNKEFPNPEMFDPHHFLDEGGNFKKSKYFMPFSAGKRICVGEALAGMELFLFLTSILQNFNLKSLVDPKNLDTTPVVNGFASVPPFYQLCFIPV
Chain of X-box-binding protein 1 (P17861 whole entry): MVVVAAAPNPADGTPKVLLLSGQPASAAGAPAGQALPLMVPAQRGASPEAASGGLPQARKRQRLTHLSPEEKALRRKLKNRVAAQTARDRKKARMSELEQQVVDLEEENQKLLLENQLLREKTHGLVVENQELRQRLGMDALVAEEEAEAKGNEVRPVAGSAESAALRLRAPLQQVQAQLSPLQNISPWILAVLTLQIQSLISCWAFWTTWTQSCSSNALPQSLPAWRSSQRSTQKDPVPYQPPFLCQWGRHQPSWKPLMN
Chain of Female germline-specific tumor suppressor gld-1 (Q17339 whole entry): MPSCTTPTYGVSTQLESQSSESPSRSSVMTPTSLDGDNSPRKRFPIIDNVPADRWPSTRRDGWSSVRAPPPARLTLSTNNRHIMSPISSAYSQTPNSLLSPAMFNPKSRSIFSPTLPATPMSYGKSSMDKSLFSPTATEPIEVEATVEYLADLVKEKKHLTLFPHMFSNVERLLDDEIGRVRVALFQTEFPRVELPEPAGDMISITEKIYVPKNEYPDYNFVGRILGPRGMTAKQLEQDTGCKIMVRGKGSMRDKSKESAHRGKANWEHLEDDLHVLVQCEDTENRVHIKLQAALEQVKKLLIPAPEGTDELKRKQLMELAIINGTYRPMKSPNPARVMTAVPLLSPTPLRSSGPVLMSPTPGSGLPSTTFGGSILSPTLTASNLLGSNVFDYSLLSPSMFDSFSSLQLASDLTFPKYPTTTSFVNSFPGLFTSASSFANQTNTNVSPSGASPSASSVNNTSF

## CCN(CC)CCCN=C(S)N1CCN(c2nc(-c3ccc(F)cc3)cs2)CC1
[1]
  EC50: > 120 µM (not active)
Vero
  CC50: 13.3 µM (active)
[2]
  EC50: > 120 µM (not active)
[3]
  EC50: > 120 µM (not active)
[4]
  AC50: 1 µM (active)

## Cc1cc(Cl)n2c(nc3ccccc32)c1C#N
[5]
  AC50: 1.85 µM (active)
[6]
  EC50: 0.54 µM (active)
BJ
  EC50: 0.343 µM (inconclusive)
X-box-binding protein 1
  Absolute IC50 (XBP1): 10 µM
[7]
  EC50: 6.06 µM (inconclusive)
[8]
  AC50: > 70 µM (inactive)
[9]
  AC50: 5.72 µM (active)
HeLa
  CC50: > 11 µM (not active)

## COC(=O)[C@@]1(C#N)[C@@H]2C=CC(C(C)=O)=CN2[C@@H](C(N)=O)[C@@H]1c1ccc(F)cc1
[10]
  EC50: 4.6 µM (active)
[11]
  IC50: 15.1 µM (inactive)
Protein Rev
  IC50: 18.3 µM (not active)
[12]
  EC50: 11.4 µM (active)

## COc1cc(CC(=O)OCC(=O)Nc2ncc(Cl)cc2Cl)cc(OC)c1OC
Bcl-2-like protein 10
  IC50: 68.3 µM (inactive)

## COCC#Cc1ccc(C2C(C)CCC3C(=O)N4C(CCC(C)C4c4ccc(C#CCOC)cc4)C(=O)N32)cc1 (stereo not drawn)
Cytochrome P450 2C9
  AC50: 7.94 µM (inconclusive)

## COc1cc(NC(=O)c2cc(C3CC3)on2)c(OC)cc1Cl
[13]
  EC50: 0.00219 µM (active)
[14]
  CC50: > 55.7 µM (inactive)

## Cc1nc(SCc2ccccc2)c([N+](=O)[O-])[nH]1
[15]
  IC50: > 150 µM (active)

## COc1ccc(OC)c(Nc2ccc(Nc3cc(OC)ccc3OC)nn2)c1
[16]
  AC50: 19.8 µM (active)
